Results published in article PMC10338470, “Phase 1 study of GSK3368715, a type I PRMT inhibitor, in patients with advanced solid tumors” (British Journal of Cancer, 2023).

Columns and labels:
[1] = test system: acute myeloid leukemia (AML) cell lines; set-up: method as in PMID 31257072; settings: acute myeloid leukemia (AML) cell lines ref [6]; cited from earlier work
[2] = test system: ADMA-R225-hnRNP-A1 in PBMCs; assay: ADMA-R225-hnRNP-A1 in PBMCs (LC-MS), target engagement; type: in vivo, human
Method: (§1) Tumor cell and plasma target engagement PD biomarkers were assessed in the dose-escalation cohort on days 1, 8, 15, and 22. In the PK/PD cohort, urine for PK and metabolite profiling was collected postdose on day 1 and through 48 h postdose on day 2, and for 24 h postdose on day 15. Participants underwent an on-treatment tumor biopsy on day 15. Asymmetric arginine 225 (R225) methylation of heterogeneous nuclear ribonucleoprotein A1 (hnRNP-A1) was identified as a target engagement PD of type I PRMT inhibition; treatment with GSK3368715 results in the reduction of asymmetric dimethylarginine 225 (ADMA-R225) on hnRNP-A1 protein in cancer cell lines and peripheral blood mononuclear cells (PBMCs). Noto et al. describe in detail the identification of hnRNP-A1 as a pharmacodynamic biomarker of type I PRMT inhibition, and the development of novel methodologies to accurately and precisely quantitate changes in the levels of ADMA on hnRNP-A1 in both blood and tumor compartments. Levels of ADMA-R225-hnRNP-A1 were measured in fresh frozen and formalin-fixed paired biopsies by liquid chromatography-mass spectrometry (LC-MS) and immunohistochemistry (IHC).
To measure the ADMA-R225-hnRNP-A1 in the PBMCs, blood was collected using the standard technique for BD Vacutainer® Evacuated Blood Collection Tubes. The PBMC aspirate prepared was used for the ADMA analyses as previously described by the LC-MS method.

[3] = test system: circulating free ADMA, cfMMA, cfSDMA; assay: Plasma circulating free ADMA, MMA and SDMA; type: in vivo, human; settings: day 15
Method: as §1

CCOCC1(COCC)CCC(c2[nH]ncc2CN(C)CCNC)CC1 [GSK3368715]
Cell lines with cytotoxic responses [1]: 50%
Reduction of ADMA-R225-hnRNP-A1 in PBMCs, mean (SE 5.81%) ([2]; 100 mg, day 15): 43.1%
Reduction of ADMA-R225-hnRNP-A1 in PBMCs, mean (SE 6.92%) ([2]; 200-mg dose group, day 15): 54.7%
Target engagement in the blood ([2]; in vivo): observed
Increase in cfMMA, mean (SE 11.9%) ([3]; 100 mg): 24.8%
Increase in cfSDMA, mean (SE 8.65%) ([3]; 100 mg): 30.2%
Reduction in circulating free ADMA, mean (SE 1.98%) ([3]; 100 mg): 22.5%
Increase in cfMMA, mean (SE 18.7%) ([3]; 200 mg): 43.8%
Increase in cfSDMA, mean (SE 23.8%) ([3]; 200 mg): 39.8%
Reduction in circulating free ADMA, mean (SE 7.7%) ([3]; 200-mg dose group): 29.1%
